Data as given in US6743822B2, “Reduction of hair growth” (The Gillette Company, priority 2001, dated 2004).
Values joined by “and” are separate entries in the source; they are usually repeats but may differ in a detail not shown here. Identical values can stand only once. “Also recorded” adds a separate entry of the source.

Columns and labels:
[1] = test system: Human hair follicles in culture (facial skin); assay: Human Hair Follicle Growth assay; assay type: cell-based; details: 0.5 mM, seven days in culture
Method: Hair follicles were isolated from human facial (obtained from patients who underwent face lift surgery) skin samples using fine forceps under a dissecting microscope and grown in tissue culture Williams E medium—supplemented with insulin (10 μg/ml), glutamine (2 mM), hydrocortisone ([…]) and antibiotics/antimycotics (pen/strep). Hair lengths were determined on day 0, and day 7. Human hair follicles in culture were treated with 0.5 mM concentration of L-DFMO, D-DFMO, D,L-DFMO. Controls were cultured in Williams E tissue culture medium without DFMO. The increase in hair fiber length was determined over seven days. […] Only L-DFMO produced statistically significant reduction in hair growth (p=0.003) in this time period. […] The “P” values, as determined by paired test analysis, were 0.97, 0.78 and 0.003 for the D,L-DFMO, D-DFMO and L-DFMO, respectively.

[2] = test system: Hamster flank organ hair follicles; assay: Golden Syrian Hamster hair follicle density assay (image analysis); assay type: in vivo; details: 7 days, dose 0.5%, vehicle of Example 2
Method: (§1) Hamster flank organs were treated topically with D,L-DFMO or L-DFMO with the contra-lateral side treated with the carrier vehicle without DFMO. Animals were sacrificed at the indicated time-point (4 days or 7 days) and back skins containing the flank organ were removed for analysis. Glycerin was applied to the underside of the dorsal skin of the hamster flank organ regions. Flank organ hair follicle mass and density were assessed, by imaging the region with a digital camera, and analysis of the images was performed with Ultimage/Pro (version 2.5) software by […]. This technique permitted the quantification of hair follicle mass based on particle area and number, and hair follicle density based on particle number.

[3] = test system: flank organs (hair growth) of Golden Syrian hamsters; assay: Twice a Week Golden Syrian Hamster assay; assay type: in vivo; details: dose 1%, 2×/wk, vehicle of Example 2
Text: Male intact Golden Syrian hamsters are considered acceptable models for human beard hair growth in that they display oval shaped flank organs, one on each side, each about 8 mm. in major diameter. These organs produce fine light colored hair typical of the animal pelage found on the body. In response to androgens the flank organs produce dark coarse hair similar to male human beard hair. To evaluate the effectiveness of a composition, the flank organs of each of a group of hamsters are depilated by applying a thioglycolate-based chemical depilatory (Surgex) and/or shaved. To one organ of each animal 10 μl of vehicle alone once a day is applied, while to the other organ of each animal an equal amount of vehicle containing substantially optically pure L-DFMO, substantially optically pure D-DFMO, racemic DFMO, or non-racemic DFMO including a preponderance of L-DFMO. After thirteen applications (one application per day for five days a week), the flank organs are shaved and the amount of recovered hair (hair mass) from each is weighed. For certain experiments, where indicated, the treatment period was for less than 13 applications. The reduced treatment period allowed for determination of onset in activity. Percent-reduction of hair growth is calculated by subtracting the hair mass (mg) value of the test compound treated side from the hair mass value of the vehicle treated side; the delta value obtained is then divided by the hair mass value of the vehicle treated side, and the resultant number is multiplied by 100. Visual evaluations comparing hair regrowth between the drug treated and the vehicle control site were made generally on day-8, day-15 and on day-19. These observations provide an identification of onset in activity (and thus efficacy). The Golden Syrian Hamster assay was modified so that the animals received a reduced treatment frequency with DFMO, namely twice per week instead of five times a week.

[4] = test system: Hamster flank organ hair follicles; assay: Golden Syrian Hamster hair follicle spatial mass assay (image analysis); assay type: in vivo
Method: as §1

[5] = test system: flank organs (hair growth) of male intact Golden Syrian hamsters; assay: Golden Syrian Hamster assay (flank organ hair mass); assay type: in vivo; details: dose 0.3%, topical; for Hair Mass in mg (drug treated): vehicle of Example 2, thirteen applications; for Percent inhibition (hair mass): vehicle of Example 2, versus vehicle treated flank organ
Text: Male intact Golden Syrian hamsters are considered acceptable models for human beard hair growth in that they display oval shaped flank organs, one on each side, each about 8 mm. in major diameter. These organs produce fine light colored hair typical of the animal pelage found on the body. In response to androgens the flank organs produce dark coarse hair similar to male human beard hair. To evaluate the effectiveness of a composition, the flank organs of each of a group of hamsters are depilated by applying a thioglycolate-based chemical depilatory (Surgex) and/or shaved. To one organ of each animal 10 μl of vehicle alone once a day is applied, while to the other organ of each animal an equal amount of vehicle containing substantially optically pure L-DFMO, substantially optically pure D-DFMO, racemic DFMO, or non-racemic DFMO including a preponderance of L-DFMO. After thirteen applications (one application per day for five days a week), the flank organs are shaved and the amount of recovered hair (hair mass) from each is weighed. For certain experiments, where indicated, the treatment period was for less than 13 applications. The reduced treatment period allowed for determination of onset in activity. Percent-reduction of hair growth is calculated by subtracting the hair mass (mg) value of the test compound treated side from the hair mass value of the vehicle treated side; the delta value obtained is then divided by the hair mass value of the vehicle treated side, and the resultant number is multiplied by 100. Visual evaluations comparing hair regrowth between the drug treated and the vehicle control site were made generally on day-8, day-15 and on day-19. These observations provide an identification of onset in activity (and thus efficacy). The above-described assay will be referred to herein as the “Golden Syrian Hamster” assay The efficacy of DFMO-containing compositions containing greater than 90% L-DFMO (“L-DFMO” for purposes of the below assays), racemic DFMO (“D,L-DFMO”), and greater than 90% D-DFMO (or “D-DFMO” for purposes of the below assays) was determined using the Golden Syrian Hamster assay. The L-DFMO produced a substantially greater hair mass reduction than the D-DFMO or D,L-DFMO (Table 1). The average inhibition at the 0.3% dose for the L-, D- and D,L-DFMO was 43±6%, 19±11% and 25±9%, respectively.

[6] = test system: flank organ hair regrowth of Golden Syrian hamsters; assay: Golden Syrian Hamster visual efficacy assay; assay type: in vivo; details: dose 2%; for Number of animals demonstrating maximal efficacy (observation score of +3) after full three weeks of treatment / Percent of animals demonstrating maximal efficacy (observation score of +3) after full three weeks of treatment: vehicle of Example 2; for Number of animals demonstrating efficacy (score of +1 or greater) after two weeks of treatment / Percent of animals demonstrating efficacy (score of +1 or greater) after two weeks of treatment: vehicle of Example 2, blinded visual score
Text: Male intact Golden Syrian hamsters are considered acceptable models for human beard hair growth in that they display oval shaped flank organs, one on each side, each about 8 mm. in major diameter. These organs produce fine light colored hair typical of the animal pelage found on the body. In response to androgens the flank organs produce dark coarse hair similar to male human beard hair. To evaluate the effectiveness of a composition, the flank organs of each of a group of hamsters are depilated by applying a thioglycolate-based chemical depilatory (Surgex) and/or shaved. To one organ of each animal 10 μl of vehicle alone once a day is applied, while to the other organ of each animal an equal amount of vehicle containing substantially optically pure L-DFMO, substantially optically pure D-DFMO, racemic DFMO, or non-racemic DFMO including a preponderance of L-DFMO. After thirteen applications (one application per day for five days a week), the flank organs are shaved and the amount of recovered hair (hair mass) from each is weighed. For certain experiments, where indicated, the treatment period was for less than 13 applications. The reduced treatment period allowed for determination of onset in activity. Percent-reduction of hair growth is calculated by subtracting the hair mass (mg) value of the test compound treated side from the hair mass value of the vehicle treated side; the delta value obtained is then divided by the hair mass value of the vehicle treated side, and the resultant number is multiplied by 100. Visual evaluations comparing hair regrowth between the drug treated and the vehicle control site were made generally on day-8, day-15 and on day-19. These observations provide an identification of onset in activity (and thus efficacy). The assay in a ‘blinded’ study included visual observations comparing the regrowth of hair on the DFMO treated flank organ with the vehicle treated flank organ during the course of treatment. Scores were assigned from 0 to +3. 0, no difference; +1, DFMO treated shorter than vehicle treated indicating efficacy; +2, DFMO treated much shorter than vehicle treated; +3, DFMO treated nearly bald indicating maximal efficacy. […] This assay will be referred to herein as the “Golden Syrian Hamster visual efficacy” assay.

[7] = 4 Days, dose 1%, vehicle of Example 2
[8] = 7 Days, dose 0.5%, vehicle of Example 2 (Table 5)
[9] = 7 days, dose 0.5%, vehicle of Example 2

Row | Compound | inhibition at 500 µM ([1]; Homo sapiens, 168 h, read-out: hair follicle growth inhibition (increase in hair fiber length, as compared to controls)) | % Inhibition of Hair Follicle Density [2] | Hair Mass in mg (drug treated) [3] | Hair follicle mass as determined by image analysis: particle area (×10^6), Treated [4, 7] | Inhibition % of hair follicle mass [4, 7] | Inhibition % of hair follicle mass [4, 8] | Hair follicle mass as determined by image analysis: particle area (×10^6), Treated [4, 9] | Hair Mass in mg (drug treated) [5] | Percent inhibition (hair mass) [5] | Number of animals demonstrating maximal efficacy (observation score of +3) after full three weeks of treatment [6] | Percent of animals demonstrating maximal efficacy (observation score of +3) after full three weeks of treatment [6] | Number of animals demonstrating efficacy (score of +1 or greater) after two weeks of treatment [6] | Percent of animals demonstrating efficacy (score of +1 or greater) after two weeks of treatment [6] | Percent of animals demonstrating efficacy (score of +1 or greater) after two weeks of treatment ([6]; listed as D, L-DFMO) | Percent of animals demonstrating maximal efficacy (observation score of +3) after full three weeks of treatment ([6]; listed as racemic DFMO) | hair follicle growth inhibition (increase in hair fiber length, as compared to controls) [1] | hair follicle mass reduction, fold greater than by D,L-DFMO ([4]; 0.5% dose, 7 days (Table 5)) | increase in efficacy (hair follicle spatial mass), fold versus D,L-DFMO ([4]; 0.5% dose, 7 days, another assay (Table 6)) | hair follicle mass reduction, fold greater than by D,L-DFMO ([4]; 1% dose, 4 days) | % Inhibition of Hair Follicle Mass ([4]; 7 days, dose 0.5%, another assay (Table 6))
1 | NCCC[C@](N)(C(=O)O)C(F)F (racemic) [D,L-DFMO, α-Difluoromethylornithine] | 1 ± 12% | no effect; also recorded: No Inhibition | 1.74 ± 0.18 mg | 4.89 ± 0.9 ×10^6 | 20% and 20 ± 9% | 15% and 15 ± 13% | 2.71 ± .71 ×10^6 | 1.53 ± 0.19 mg | 25±9% | 1 out of 8 | 13% | 3 out of 8 | 38% | 38% | 13% | – | – | – | – | –
2 | NCCC[C@@](N)(C(=O)O)C(F)F [D-DFMO] | – | – | 1.80 ± 0.18 mg | – | – | – | – | 1.39 ± 0.12 mg | 19±11% | 0 out of 8 | – | 2 out of 8 | 25% | – | – | 4±13% | – | – | – | –
3 | NCCC[C@](N)(C(=O)O)C(F)F [L-DFMO, L-α-difluoromethylornithine] | – | 45% and 45 ± 5% | 1.83 ± 0.38 mg | 4.23 ± 1.1 ×10^6 | 43% and 43 ± 9% | 58% and 58 ± 11% | 2.22 ± .94 ×10^6 | 1.06 ± 0.14 mg | 43±6% | 5 out of 8 | – | 7 out of 8 | – | – | – | 36±12% | ~4 fold | ~4 fold | 2 fold | 41% and 41 ± 15%
